According to patent US4049802A (Research Corporation, priority 1975, dated 1977):
≈ marks a conversion by molar mass, not a printed value. Where two headings read alike, the source gives them in different places.

Columns and labels:
[1] = Minimum inhibitory concentration (growth at drug concentrations) and effect of para-aminobenzoic acid (PABA), Table II; assay type: cell-based
Pseudomonas = test: Minimum inhibitory concentrations vs Pseudomonas, Table V; assay type: cell-based

| SMILES | Growth (minimum inhibitory concentration series) ([1]; 0.05 μ mole/ml drug) | Growth (minimum inhibitory concentration series) ([1]; 0.1 μ mole/ml drug) | Growth (minimum inhibitory concentration series) ([1]; 0.5 μ mole/ml drug) | Growth (minimum inhibitory concentration series) ([1]; 1.0 μ mole/ml drug) | Growth (minimum inhibitory concentration series) ([1]; 0.4 μ mole/ml drug) | Growth, drug + PABA ([1]; 0.5 μ mole/ml drug + PABA 0.05) | Growth (minimum inhibitory concentration series) ([1]; 0.6 μ mole/ml drug) | Growth (minimum inhibitory concentration series) ([1]; 0.8 μ mole/ml drug) | Growth, drug + PABA ([1]; 1.0 μ mole/ml drug + PABA 0.1) | Growth (minimum inhibitory concentration series) ([1]; 2.0 μ mole/ml drug) | Growth, drug + PABA ([1]; 2.0 μ mole/ml drug + PABA 0.01) | Growth, drug + PABA ([1]; 2.0 μ mole/ml drug + PABA 0.1) | Growth, drug + PABA ([1]; 2.0 μ mole/ml drug + PABA 0.2) | Minimum Inhibitory Concentration vs Pseudomonas (Pseudomonas; listed as Na Sulfadiazine) [μM/L] | PAB to Block (Pseudomonas; listed as Na Sulfadiazine) | PAB to Block (Pseudomonas) | MIC (Pseudomonas; Pseudomonas, read-out: Minimum Inhibitory Concentration vs Pseudomonas) [µM] |
| --- | --- | --- | --- | --- | --- | --- | --- | --- | --- | --- | --- | --- | --- | --- | --- | --- | --- |
| CC(=O)[O-].CC(=O)[O-].[Zn+2] [Zinc Acetate, zinc acetate] | + | + | + | + |  |  |  |  |  |  |  |  |  |  |  |  |  |
| Nc1ccc(S(=O)(=O)Nc2ncccn2)cc1 [Sodium Sulfadiazine, sodium sulfadiazine] |  | + | + | - | + | + | + | - | + | - | + | + | + | 80 | 1/200 |  |  |
| NCc1ccc(S(N)(=O)=O)cc1 [Sulfamylon] |  |  |  |  |  |  |  |  |  |  |  |  |  |  |  | neg. | 500 (≈ 93.1 µg/mL) |
